Data on 1 molecule can be found in patent US10300052B2, “Methods for increasing CFTR activity” (THE UAB RESEARCH FOUNDATION, priority 2012, dated 2019).

For test [1], the system named is CFBE41o-cells without WT CFTR complementation (parental cells). Nature of the test: Short-circuit current (Isc) in Ussing chambers, parental CFBE41o- cells without detectable CFTR expression. The following applies: ivacaftor 10 μM after amiloride 100 μM and forskolin 100 nM; parental cells without detectable CFTR expression (FIG. 1A). It is filed as cell-based, human. The protocol:
CFBE41o-cells complemented by stable expression of WT-CFTR (by a lentivirus promoter) are shown in comparison to CFBE41o-cells without WT CFTR complementation (parental cells). *P<0.05, **P<0.005, n=5/condition.
The CFTR potentiator ivacaftor was chosen as an exemplary CFTR activator. The activity of ivacaftor was examined in WT-CFTR expressing cells.
Short-circuit current (Isc) was measured under voltage clamp conditions using MC8 voltage clamps and P2300 Ussing chambers (Physiologic Instruments, San Diego, Calif.) as previously described (2). Monolayers were initially bathed on both sides with identical Ringer's solutions containing (in mM) 115 NaCl, 25 NaHCO3, 2.4 KH2PO4, 1.24 K2HPO4, 1.2 CaCl2, 1.2 MgC2, 10 D-glucose (pH 7.4). Bath solutions were vigorously stirred and gassed with 95%02:5% CO2. Short-circuit current measurements were obtained using an epithelial voltage clamp (Physiologic Instruments). A one-second three-mV pulse was imposed every 10 seconds to monitor resistance calculated using Ohm's law. Where indicated, the mucosal bathing solution was changed to a low Cl-solution containing 1.2 NaCl and 115 Na+ gluconate, and all other components as above. Amiloride (100 μM) was added to block residual Na+ current, followed by the agonists forskolin, ivacaftor, and ATP as indicated (minimum five-min observation at each concentration). […]

Test [2] addresses T1, CFTR (Homo sapiens, UniProt P13569).
T1 construct: from tissue; host or cells: normal human trachea/bronchus from donor explant organs
Nature of the test: Short-circuit current (Isc) in primary non-CF human bronchial epithelial (HBE) cells. It is filed as cell-based. Conditions: ivacaftor 10 μM after pre-stimulation with 100 nM forskolin, compared to forskolin alone (FIG. 1B). The protocol:
In primary non-CF human bronchial epithelial (HBE) cells, ivacaftor also augmented CFTR-dependent anion transport activity following pre-stimulation with 100 nM forskolin, a dose chosen to induce cAMP levels matching CSE-exposed cells, increasing CFTR-dependent short-circuit current (Isc) compared to that stimulated by forskolin alone (FIG. 1B).
Primary human bronchial epithelial (HBE) cells were derived from lung explants after written informed consent was obtained from CF and non-CF subjects with confirmed CFTR genetics by methods described previously. Briefly, tissues were debrided immediately after surgical resection, washed twice in Minimum Essential Media (MEM) with 0.5 mg/ml DTT (Sigma-Aldrich, St. Louis, Mo.) and 25 U/ml DNAse I (Roche, Basel, Switzerland), and then placed in dissociation media containing MEM, 2.5 U/ml DNAse I, 100 μg/ml ceftazidime, 80 μg/ml tobramycin, 1.25 μg/ml amphotericin B, and 4.4 U/ml pronase (Sigma-Aldrich) for 24-36 h at 4° C. […]
Short-circuit current (Isc) was measured under voltage clamp conditions using MC8 voltage clamps and P2300 Ussing chambers (Physiologic Instruments, San Diego, Calif.) as previously described (2). […] A one-second three-mV pulse was imposed every 10 seconds to monitor resistance calculated using Ohm's law. […]

The target in test [3] is T1, CFTR. The experiment in a line: Isc under voltage clamp in normal explanted human trachea. Conditions: ivacaftor 10 μM after amiloride 100 μM and forskolin 100 nM, voltage clamp (FIGS. 3A, 3B). The protocol: Serial addition of amiloride (100 μM), forskolin (100 nM), and ivacaftor (VX-770; 10 μM) or vehicle control is shown, followed by addition of ATP (10 μM), and CFTR Inh-172 (10 μM×2) as control additions.
The change in Isc following addition of ivacaftor (VX-770) or vehicle control is shown. *P<0.05, n=19, 24 samples/condition.
Ivacaftor also potentiated CFTR-dependent current in normal explanted human trachea examined under voltage clamp conditions (FIGS. 3A and B).
Samples of human trachea tissue were obtained from normal donor explant organs not selected for lung transplantation. Lung, mainstem bronchi, and trachea were resected en-bloc, transferred on wet ice, and large airways excised. Airway tissues were then immersed in ice cold DMEM following resection for transfer, then allowed to equilibrate to room temperature prior to mOCT imaging.
Short-circuit current (Isc) was measured under voltage clamp conditions using MC8 voltage clamps and P2300 Ussing chambers (Physiologic Instruments, San Diego, Calif.) as previously described (2). Monolayers were initially bathed on both sides with identical Ringer's solutions containing (in mM) 115 NaCl, 25 NaHCO3, 2.4 KH2PO4, 1.24 K2HPO4, 1.2 CaCl2, 1.2 MgC2, 10 D-glucose (pH 7.4). […] A one-second three-mV pulse was imposed every 10 seconds to monitor resistance calculated using Ohm's law. […]

T1 sequence (P13569 whole entry): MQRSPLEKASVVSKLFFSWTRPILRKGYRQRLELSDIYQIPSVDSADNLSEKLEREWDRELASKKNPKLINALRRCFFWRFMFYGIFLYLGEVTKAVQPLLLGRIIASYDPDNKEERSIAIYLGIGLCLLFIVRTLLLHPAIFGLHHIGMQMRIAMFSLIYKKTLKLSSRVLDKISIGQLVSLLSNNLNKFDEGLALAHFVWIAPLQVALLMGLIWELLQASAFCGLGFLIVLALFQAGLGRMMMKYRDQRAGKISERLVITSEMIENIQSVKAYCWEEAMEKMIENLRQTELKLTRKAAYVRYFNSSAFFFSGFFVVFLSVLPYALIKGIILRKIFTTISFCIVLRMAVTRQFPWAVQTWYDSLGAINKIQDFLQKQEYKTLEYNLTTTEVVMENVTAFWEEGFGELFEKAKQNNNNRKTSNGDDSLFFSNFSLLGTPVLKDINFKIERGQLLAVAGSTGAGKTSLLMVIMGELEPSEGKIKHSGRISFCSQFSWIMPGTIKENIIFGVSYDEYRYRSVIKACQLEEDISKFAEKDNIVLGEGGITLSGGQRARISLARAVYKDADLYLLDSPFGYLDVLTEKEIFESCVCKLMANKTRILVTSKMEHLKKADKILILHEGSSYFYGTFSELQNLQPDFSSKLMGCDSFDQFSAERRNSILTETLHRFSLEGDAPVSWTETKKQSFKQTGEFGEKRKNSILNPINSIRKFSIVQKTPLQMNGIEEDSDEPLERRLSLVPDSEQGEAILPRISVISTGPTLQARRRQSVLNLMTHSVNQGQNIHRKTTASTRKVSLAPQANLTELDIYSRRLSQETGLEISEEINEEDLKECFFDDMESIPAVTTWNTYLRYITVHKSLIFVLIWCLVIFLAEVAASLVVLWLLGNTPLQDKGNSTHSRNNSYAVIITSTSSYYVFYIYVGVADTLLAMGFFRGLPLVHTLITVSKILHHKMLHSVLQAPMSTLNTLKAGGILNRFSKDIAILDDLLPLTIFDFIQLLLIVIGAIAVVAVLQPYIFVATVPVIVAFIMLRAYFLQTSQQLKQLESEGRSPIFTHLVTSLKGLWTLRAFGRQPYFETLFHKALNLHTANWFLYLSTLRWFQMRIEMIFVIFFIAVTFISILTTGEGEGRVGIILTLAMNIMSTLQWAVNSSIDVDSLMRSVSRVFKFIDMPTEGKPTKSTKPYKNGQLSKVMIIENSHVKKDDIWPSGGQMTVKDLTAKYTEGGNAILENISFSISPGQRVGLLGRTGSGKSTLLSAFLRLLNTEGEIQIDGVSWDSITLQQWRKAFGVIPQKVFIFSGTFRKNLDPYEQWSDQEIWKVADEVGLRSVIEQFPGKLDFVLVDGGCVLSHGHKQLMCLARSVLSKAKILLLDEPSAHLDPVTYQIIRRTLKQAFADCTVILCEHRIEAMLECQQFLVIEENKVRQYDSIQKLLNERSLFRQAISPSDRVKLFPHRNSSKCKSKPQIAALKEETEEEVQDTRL

As for `CC(C)(C)c1cc(C(C)(C)C)c(NC(=O)c2c[nH]c3ccccc3c2=O)cc1O` [ivacaftor], the “anion transport (Isc)” value in test [1] is given as “no activity”. In addition, the “CFTR-dependent anion transport activity (short-circuit current, Isc)” value at CFTR [2] is on record as “augmented”. Moreover, the CFTR-dependent current entry on CFTR [3] is “potentiated”.
